Patent publication EP1916301A1, “METHOD FOR […] USING MOLECULE ON THE RB PATHWAY AS INDEX AND MOLECULAR […]” (BANYU PHARMACEUTICAL CO., LTD., priority 2005, dated 2007)

What was measured:
U-2 OS cell = assay: Cell cycle analysis by flow cytometry (DNA staining) after doxorubicin treatment; assay type: cell-based; conditions: for cell cycle arrest: 10 nM doxorubicin
Procedure: (§1) First, the U-2 OS cell and U-2 OS shRb cell were treated with 10 nM doxorubicin. The cells were collected after 24 hours and 48 hours, and the DNA of the cells were stained with the Cycle TESTTM PLUS DNA Reagent Kit (Becton Dickinson), and an analysis was carried out by flow cytometry.
(§2) Further, in what phase the respective cells were maintained in the cell cycle under the respective conditions is shown in Table 2. (Table 2)

U-2 OS shRb cell = assay: Cell cycle analysis by flow cytometry (DNA staining) after doxorubicin treatment, Rb knockdown cell; assay type: cell-based
Procedure: Into U-2 OS cells with wild-type Rb, pSuperior-puro.shRb vector was transfected using Funege 6. After the transfected cells were cultured for 24 hours, the cells were cultured such that the number of cells became about one fiftieth, and then, the cells were cultured for about two weeks in the presence of 1.0 µg/mL of puromycin. A cell that formed a colony was isolated by a cylinder cloning method. Hereinafter, the established Rb knockdown cell was referred to as U-2 OS shRb.
as §1, §2

[1] = 10 nM doxorubicin for 24 hours, cell having only a vector introduced (Fig. 4)
[2] = 10 nM doxorubicin for 48 hours, cell having only a vector introduced (Fig. 5)
[3] = 10 nM doxorubicin for 24 hours, cell having an Rb shRNA introduced (Fig. 7)
[4] = 10 nM doxorubicin for 48 hours, cell having an Rb shRNA introduced (Fig. 8)

COc1cccc2c1C(=O)c1c(O)c3c(c(O)c1C2=O)C[C@@](O)(C(=O)CO)C[C@@H]3O[C@H]1C[C@H](N)[C@H](O)[C@H](C)O1 [doxorubicin]
G1 (%) (U-2 OS cell; [1]): 20%
G2/M (%) (U-2 OS cell; [1]): 68%
S (%) (U-2 OS cell; [1]): 11%
G1 (%) (U-2 OS cell; [2]): 29%
G2/M (%) (U-2 OS cell; [2]): 66%
S (%) (U-2 OS cell; [2]): 5.4%
cell cycle arrest (U-2 OS cell; at 24 hours after the treatment): arrested in the G2/M phase
cell cycle arrest (U-2 OS cell; at 48 hours after the treatment): arrested in the G2/M phase
G1 (%) (U-2 OS shRb cell; [3]): 35%
G2/M (%) (U-2 OS shRb cell; [3]): 45%
S (%) (U-2 OS shRb cell; [3]): 19%
G1 (%) (U-2 OS shRb cell; [4]): 62%
G2/M (%) (U-2 OS shRb cell; [4]): 23%
S (%) (U-2 OS shRb cell; [4]): 16%
cell cycle arrest (U-2 OS shRb cell; 10 nM doxorubicin, at 24 hours after the treatment): arrested in the G2/M phase
G2/M phase arrest (U-2 OS shRb cell; 10 nM doxorubicin, at 48 hours after the treatment): not maintained
